Results reported in patent US20080261895A1 (Wyeth, priority 2006, published 2008).
Values joined by “and” are separate entries in the source; they are usually repeats but may differ in a detail not shown here. Equal values may be shown once. Marks after values point to notes of the source that are not given here.

Key:
[1] = Urinary excretion and metabolite profile by radiochromatography, dogs; format: in vivo, beagle dogs; details: single oral 30 mg/kg
Procedure: For each dog, urine and feces were collected separately, with urine collected on dry ice and feces collected at room temperature. Collections were from 0-8 and 8-24 hours for urine and 0-24 hours for feces. Urine and fecal samples were shipped on dry ice to Wyeth Research, Biotransformation Division (Collegeville, Pa.) for analysis. Fecal samples were homogenized in approximately five volumes (v/w) of water. Aliquots of approximately 0.2 grams of the homogenate were placed into combusto-cones, weighed and allowed to air dry. These samples were then oxidized and radioactivity content determined. The remaining urine samples and fecal homogenates were stored at −70° C. until metabolite analysis. Blood samples and fecal homogenates were oxidized in a Model 307 Tri-Carb sample oxidizer, using Carbosorb® E (6 mL) as trapping agent and PermaFluor® E^+ (10 mL) as scintillant. The background reading (average of control blood or fecal samples) was subtracted from each sample reading. Aliquots of urine and plasma were analyzed directly following the addition of 10 mL of Ultima Gold™ scintillation fluid.
Urine samples collected between 8 and 24 hours post-dose were analyzed for metabolite profiles. Aliquots of urine were centrifuged at 14000 rpm in an Eppendorf Model 5415C centrifuge for 10 minutes. The supernatant was transferred to a fresh tube and analyzed for radioactivity content and by HPLC for metabolite profiling. Selected samples were also analyzed by LC/MS to characterize the radioactive peaks.
(§1) Chromatographic analyses were performed with a Waters Alliance model 2690 HPLC system (Waters Corp., Milford, Mass.). It was equipped with a built-in autosampler and was in-line with a model 2487 tunable UV detector, set to monitor 225 nm, and a FloOne β Model 515 radioactivity flow detector (Perkin Elmer) with a 250 μL LQTR flow cell. The flow rate of Ultima Flow M scintillation fluid was 3 mL/min, providing a mixing ratio of scintillation cocktail to mobile phase of 3:1. Separation of the metabolite peaks was accomplished on a Phenomenex Luna C18(2) column, 250×4.6 mm, 5 micron (Phenomenex, Torrance, Calif.), using a linear gradient of two mobile phases, A and B. Mobile phase A was 10 mM ammonium acetate, pH 5.5, and mobile phase B was acetonitrile. The flow rate was 1 mL/min.

[2] = Stability of [14C]DVS in control rat urine; format: in vitro ADME; details: 37° C.
Procedure: The stability of [^14C]DVS in rat urine was determined. [^14C]DVS (0.13 mg/mL, final concentration) was added to control rat urine and incubated in a shaking water bath set to 37° C. Aliquots (0.5 mL) were removed at 0, 1, 4, 8 and 24 hours. Samples were extracted as described above and radiopurity assayed by HPLC analysis.

[3] = Fecal excretion and metabolite profile by radiochromatography, rats; format: in vivo, Sprague Dawley rats; details: for % of the radioactive dose excreted in feces: rats
Procedure: Urine and feces were collected separately on dry ice from three animals per sex. Collections were from 0-8 and 8-24 hours for male rats and 0-8 hours for female rats. Fecal samples were homogenized in approximately five volumes (v/w) of water. Aliquots of approximately 0.4 grams of the homogenate were placed into combusto-cones, weighed and allowed to air dry. These samples were then oxidized. The remaining urine samples and fecal homogenates were stored at −70° C. until metabolite analysis.
Fecal homogenates collected from male rats between 8 and 24 hours post-dose were analyzed for metabolite profiles. Aliquots of approximately 1 gram of fecal homogenate were centrifuged at 3500 rpm and 4° C. in a Sorvall Super 21 centrifuge for 10 minutes. The supernatant was transferred to a clean tube. The residue was re-suspended with 1 mL of water:acetonitrile (1:1, v:v) and centrifuged as described above. The resulting supernatant was combined with the original supernatant and the residue re-suspended with 1 mL of acetonitrile. The suspension was centrifuged as described above, and the supernatants were combined and analyzed for radioactivity. The supernatants were then concentrated under a stream of nitrogen in a Turbo Vap to remove the acetonitrile. An aliquot of the aqueous residue was analyzed by HPLC for profiling. Selected samples were also analyzed by LC/MS to characterize the radioactive peaks.
as §1, with “β Model 525 radioactivity flow” for “β Model 515 radioactivity flow”, “fluid was 1 mL/min, providing” for “fluid was 3 mL/min, providing”, “phase of 5:1. Separation of” for “phase of 3:1. Separation of”, “C18(2) column, 150×2.0 mm, 5” for “C18(2) column, 250×4.6 mm, 5”, “acetate, pH 6.0, and mobile” for “acetate, pH 5.5, and mobile”, “rate was 0.2 mL/min.” for “rate was 1 mL/min.”

[4] = includes 0-8 and 8-24 hour time points, 30 mg/kg

CN(C)CC(c1ccc(O)cc1)C1(O)CCCCC1.O=C(O)CCC(=O)O (stereo not drawn) [DVS, O-desmethylvenlafaxine succinate]
Radioactivity as % of Dose in urine, Mean ± S.D. [1, 4]: 74.8 ± 13.0^b % | Radioactivity as % of Dose in urine, individual dogs [1, 4]: 85.4% and 63.0% and 86.6% and 64.0% | Radioactivity as % of Dose in urine, Mean ± S.D. ([1]; includes 0-8 and 8-24 hour time points, listed as [^14C]DVS, 30 mg/kg): 75% | Compounds Detected by Radiochromatography in urine, percent of total peaks, Mean ± S.D. ([1]; urine 8-24 hours post-dose): 5.8 ± 1.6% | Compounds Detected by Radiochromatography in urine, percent of total peaks, individual dogs ([1]; urine 8-24 hours post-dose, mean of 2 analyses, 30 mg/kg): 7.9% and 5.7% and 5.4% and 4.0% | radiopurity of [14C]DVS in rat urine ([2]; all time points up to 24 hours): greater than 99.5% | Stability of [14C]DVS in control rat urine ([2]; up to 24 hours): stable | Radioactivity as % of Dose in feces, Mean ± S.D. ([3]; male rats, feces 8-24 hours post-dose, single oral 20 mg/kg): 9.6 ± 1.1% | Compounds Detected by Radiochromatography in feces, percent of total peaks, individual rats ([3]; male rats, feces 8-24 hours post-dose, single oral 20 mg/kg, 20 mg/kg): 19.6% and 20.8% and 22.0% | Radioactivity as % of Dose in feces, individual rats ([3]; male rats, feces 8-24 hours post-dose, single oral 20 mg/kg, listed as [^14C]DVS, 20 mg/kg): 10.8% and 9.5% and 8.5^b % | % of the radioactive dose excreted in feces ([3]; 0-8 hour fecal samples): Less than 0.1% | % of the radioactive dose excreted in feces ([3]; within 24 hours of dosing): approximately 10%
